Test results taken from publication PMC4171606, “A novel copper(I) complex induces ER-stress-mediated apoptosis and sensitizes B-acute lymphoblastic leukemia cells to chemotherapeutic agents” (Oncotarget, 2014).

Tests used:
Assay type in all cases: cell-based, human
[1] = system: PHA stimulated healthy PBMC; experiment: MTT growth inhibition, 72 h; conditions: mean ± SE
[2] = system: caspase-12; experiment: Western blot, cleaved caspase-12
Method: (§1) FIGURE 2 CP induces caspase-dependent apoptosis without mitochondria involvement (A) Assessment of mitochondrial membrane potential (ΔΨmt) after treatment of RS4;11 and SEM cells with CP (2.5 μM) for the indicated times. Cells were stained with the fluorescent probe JC-1. Data are represented as mean ± S.E.M. of three independent experiments. (B) Flow cytometric analysis of RS4;11 and SEM cells treated with CP (2.5 μM) for 24 h showing cytochrome c labeled with a monoclonal antibody conjugated to FITC. Representative image of three experiments with similar results. (C) Cells were incubated with CP 2.5 μM and 5 μM in the presence or absence of the pan-caspase inhibitor z-VAD.fmk (100 μM). Cell viability was determined after 48 h by MTT assay. Data are represented as mean ± S.E.M. of three independent experiments performed in triplicate. *p<0.01 vs CP alone. (D) Western blot analysis of Bcl-2, cleaved caspase-12, caspase-9, cleaved caspase-7, caspase-3 and PARP after treatment of SEM and RS4;11 cells with CP (2.5 μM) for the indicated times. To confirm equal protein loading, each membrane was stripped and reprobed with anti-β-actin antibody. […]
Cells were treated with CP and, after different times, were collected, centrifuged and washed with ice cold phosphate-buffered saline (PBS). […] The protein concentration in the supernatant was determined using the BCA protein assay (Pierce, Italy). […]

[3] = system: RS4;11 and SEM cells; experiment: Cell cycle distribution by flow cytometry (PI); conditions: 24 h, different concentrations
Method: FIGURE 1 CP uptake and effects on cell cycle and apoptosis induction A) RS4;11, SEM, THP1, Jurkat cell lines and healthy PBMC were incubated with 6.25, 12.5 and 25 μM of CP for 24 h. The intracellular accumulation of CP was detected by GF-AAS analysis. B) SEM and RS4;11 cells were treated with the indicated concentrations of CP for 24 h, cell cycle distribution and Sub-G1 contents were analyzed by flow cytometry after cell staining with PI. The percentages of each phase of the cell cycle (G1, S, G2/M) were calculated on living cells whereas the percentages of cells with hypodiploid DNA content peak (subG1) was referred to cell population characterized by the appearance of subG1 peak. C) SEM and RS4;11 cells were incubated with 2.5 μM CP for the indicated times and analyzed by flow cytometry after double staining with Annexin-V-FITC and PI. Data are represented as mean ± S.E.M. of three independent experiments.
The effects of different concentrations of CP on cell cycle progression were examined in RS4;11 and SEM cells after 24 h of treatment.
5×10^5 RS4;11 and SEM cells in exponential growth were treated with different concentrations of CP for different times. After the incubation, cells were collected, centrifuged and fixed with ice-cold ethanol (70%) and stained with PI as described previously. DNA histograms were analyzed using Multicycle for Windows (Phoenix Flow Systems)

[4] = system: RS4;11 and SEM cells; experiment: Cytochrome c release by flow cytometry; conditions: CP 2.5 μM, 24 h
Method: (§2) To determine whether the apoptotic stimuli involved mitochondria alteration, we examined the mitochondrial transmembrane potential (ΔΨmt) by means of the fluorescence dye JC-1.
as §1, with “assay.” for “assay. Data are represented as mean ± S.E.M. of three independent experiments performed in triplicate. *p<0.01 vs CP alone. (D) Western blot analysis of Bcl-2, cleaved caspase-12, caspase-9, cleaved caspase-7, caspase-3 and PARP after treatment of SEM and RS4;11 cells with CP (2.5 μM) for the indicated times. To confirm equal protein loading, each membrane was stripped and reprobed with anti-β-actin antibody.”
(§3) The mitochondrial membrane potential was measured with the lipophilic cation 5,5',6,6'-tetrachlo-1,1',3,3'-tetraethylbenzimidazolyl-carbocyanine (JC-1) (Life Technologies, Italy) as previously described. Cytochrome c release was analyzed by flow cytometry using a commercial kit (Innocyte flow cytometric cytochrome c release kit, Calbiochem, Italy) following the manufacturer's instructions.

[5] = system: RS4;11 and SEM cells; experiment: Mitochondrial transmembrane potential, JC-1; conditions: CP 2.5 μM
Method: as §2
as §1, with “assay.” for “assay. Data are represented as mean ± S.E.M. of three independent experiments performed in triplicate. *p<0.01 vs CP alone. (D) Western blot analysis of Bcl-2, cleaved caspase-12, caspase-9, cleaved caspase-7, caspase-3 and PARP after treatment of SEM and RS4;11 cells with CP (2.5 μM) for the indicated times. To confirm equal protein loading, each membrane was stripped and reprobed with anti-β-actin antibody.”
as §3

F[P-](F)(F)(F)(F)F.OCP(CO)CO.OCP(CO)CO.OCP(CO)CO.OCP(CO)CO.[Cu+] [CP, [Cu(thp)4][PF6]]
GI50 [1]: 16.9 ± 1.6 µM | onset of caspase-12 activation ([2]; RS4;11, CP 2.5 μM): ≥ 1.5 h | onset of caspase-12 activation ([2]; SEM, CP 2.5 μM): ≥ 3 h | cell population with hypodiploid DNA content peak (subG1) [3]: concentration-dependent increase | effect on cell cycle progression [3]: did not affect cell cycle | cytochrome c release [4]: did not reveal cytochrome c release | percentage of cells with low ΔΨmt [5]: slightly increased, only after 12 h
